# Columns and labels:
# [1] = system: human dermal fibroblasts isolated from neonatal foreskin (HDFn); assay: PPIase activity on cell surface (PACS), HDFn; type: cell-based; settings: inhibitor final concentration of 10 µM
# Procedure: To investigate PACS, we need to distinguish between different families of PPIase. […] PACS must also be distinguished from that in culture medium. Adhesive cells such as fibroblasts (human dermal fibroblasts isolated from neonatal foreskin (HDFn)) or mesenchymal stromal cells (MSCs) were washed by simple pipetting and pooling. Washing of suspension cells such as T cells was performed by centrifugation. After the first washing step, no change in PPIase activity in supernatant could be detected through the following washing steps. To minimize the potential damage to cells, one washing step was used in the PACS measurement for suspension cells (Supplementary Fig. 10). […] Adding SLF further reduced the isomerase activity in samples both with and without cells due to the FKBP in the fetal bovine serum (FBS)-containing medium. After the treatment of CsA/SLF, these was no difference in the substrate cis/trans isomerization rate in all the samples. Therefore, neither the cells nor the FBS in the culture medium interferes with the protease-coupled PPIase assay (Fig. 4b).
# (§1) The assay was performed in a cold room. If there was no additional description, the assays were performed in CO2-independent medium supplemented with 10% (v/v) h.i. FBS (medium-h.i. FBS) and 2mM L-glutamine. […] FBS to a final concentration of 120 µg mL^−1 (two times substrate stock). α-Chymotrypsin was prepared freshly. Fifteen micrograms of α-chymotrypsin was dissolved in 2 mL medium-h.i. FBS, and the pH was adjusted with 10 µL 1 M NaOH. Five millimole CsA, SLF, and CsA/SLF mixture were prepared in DMSO.
# (§2) The cells (10,000 per well) were cultured in 96-well plates for 24 h. The supernatant was removed by turning the plate upside down. The cells were washed three times for 5 min under gentle shaking using supplemented CO2-independent medium (100 µL/well), and the supernatant was removed as before. The cells were kept in supplemented CO2-independent medium (100 µL/well) for measuring PPIase activity.
# (§3) The medium was removed with a pipette. […] The mixture was kept for 5 min without agitation, followed by 1.5 min of agitation (linear shaking by hand with a speed of around 200 rounds/min). Twenty microliters were taken from the supernatant and measured along with the cell fraction (the remaining 20 µL) for PPIase activity. The activity measurements were triggered by adding 20 µL α-chymotrypsin at time 0 min, followed by 1.5 min of agitation, and the reaction was stopped at time 2 min with 80 µL of 20% acetic acid followed by 15 rounds of up and down pipetting mixing. Four independent experiments were performed on the same day.
# Jurkat cells = assay: PPIase activity on cell surface (PACS), Jurkat cells; type: cell-based; settings: 1 µL medium with 200 µM inhibitor added to 19 µL
# Procedure: (§4) To investigate PACS, we need to distinguish between different families of PPIase. […] PACS must also be distinguished from that in culture medium. Adhesive cells such as fibroblasts (human dermal fibroblasts isolated from neonatal foreskin (HDFn)) or mesenchymal stromal cells (MSCs) were washed by simple pipetting and pooling. Washing of suspension cells such as T cells was performed by centrifugation. […] To minimize the potential damage to cells, one washing step was used in the PACS measurement for suspension cells (Supplementary Fig. 10).
# as §1, with “NaOH.” for “NaOH. Five millimole CsA, SLF, and CsA/SLF mixture were prepared in DMSO.”
# One or more flasks of cells (5 mL per flask, depending on the maximum culture density of each cell line) were harvested by centrifuging at 1000 rpm for 3 min. To remove PPIases from the supernatant originating from the culture, cells were washed one time with 2 mL CO2-independent medium and were resuspended in 1.6 mL of CO2-independent medium with substrate. The cells were centrifuged again, and then 800 µL of the supernatant was taken. The residual volume containing cells was suspended. Nineteen microliters of the cells or supernatant was pipetted to a non-binding 96-well microplate to measure PPIase activity. Four different conditions were performed. […] The plate was kept for 5 min without agitation. The activity measurements were triggered by adding 20 µL of α-chymotrypsin at time 0 min, followed by 1.5 min agitation, and the reaction was stopped after 2 min with 80 µL 20% acetic acid, followed by 15 rounds of up and down pipetting mixing. […]
# For the Jurkat cell number activity measurements, two flasks of cells (10 mL) were harvested, washed, and suspended in 600 µL of CO2-independent medium with substrate. The cells were centrifuged again, and then 300 µL supernatant was taken to measure the activity. The residual volume with cells was suspended and used to measure activity (cell density: 2.4 × 10^7 cells/mL). Four different conditions were performed: 20 µL supernatant or cell with 0 µL substrate, 10 µL supernatant or cell with 10 µL substrate, 5 µL supernatant or cell with 15 µL substrate, and 2.5 µL supernatant or cell with 17.5 µL substrate. […]
# [2] = system: PPIase activity in culture medium (FKBP in the FBS-containing medium); assay: PPIase activity in CO2-independent medium with or without FBS (control); type: biochemical, bovine; settings: for Supernatant PPIase activity k, Exp. 1 / Supernatant PPIase activity k, Exp. 2 / Supernatant PPIase activity k, Exp. 3 / Supernatant PPIase activity k, Mean: no cells
# Procedure: as §4
# as §1, with “NaOH.” for “NaOH. Five millimole CsA, SLF, and CsA/SLF mixture were prepared in DMSO.”
# [3] = system: human mesenchymal stromal cells (MSCs); assay: PPIase activity on cell surface (PACS), MSCs; type: cell-based; settings: MSC, inhibitor final concentration of 10 µM
# Procedure: as §4
# as §1, with “NaOH.” for “NaOH. Five millimole CsA, SLF, and CsA/SLF mixture were prepared in DMSO.”
# as §2, §3
structure (smiles),measurement,setting,value
CCC(C)(C)C(=O)C(=O)N1CCCC[C@H]1C(=O)O[C@H](CCc1ccc(OC)c(OC)c1)c1cccc(OCC(=O)O)c1 [SLF],"Supernatant PPIase activity k, Exp. 1",[1]; supernatant,0.00186 s⁻¹
same,"Supernatant PPIase activity k, Exp. 2",[1]; supernatant,0.00236 s⁻¹
same,"Supernatant PPIase activity k, Exp. 3",[1]; supernatant,0.00238 s⁻¹
same,"Supernatant PPIase activity k, Mean",[1]; supernatant,0.0022 s⁻¹
same,"cell surface PPIase activity k, Exp. 2",[1]; with cells,0.0027 s⁻¹
same,"cell surface PPIase activity k, Exp. 3",[1]; with cells,0.00286 s⁻¹
same,"cell surface PPIase activity k, Exp. 4",[1]; with cells,0.00333 s⁻¹
same,"cell surface PPIase activity k, Mean",[1]; with cells,0.002963 s⁻¹
same,"Supernatant PPIase activity k, Exp. 1",Jurkat cells; supernatant,0.00208 s⁻¹
same,"Supernatant PPIase activity k, Exp. 2",Jurkat cells; supernatant,0.00205 s⁻¹
same,"Supernatant PPIase activity k, Exp. 3",Jurkat cells; supernatant,0.00194 s⁻¹
same,"Supernatant PPIase activity k, Exp. 4",Jurkat cells; supernatant,0.00211 s⁻¹
same,"Supernatant PPIase activity k, Exp. 5",Jurkat cells; supernatant,0.00203 s⁻¹
same,"Supernatant PPIase activity k, Exp. 6",Jurkat cells; supernatant,0.00196 s⁻¹
same,"Supernatant PPIase activity k, Mean",Jurkat cells; supernatant,0.002028 s⁻¹
same,"cell surface PPIase activity k, Cell (1st replicate column)",Jurkat cells; with cells,0.0033 s⁻¹
same,"cell surface PPIase activity k, Cell (2nd replicate column)",Jurkat cells; with cells,0.00321 s⁻¹
same,"cell surface PPIase activity k, Cell (3rd replicate column)",Jurkat cells; with cells,0.00336 s⁻¹
same,"cell surface PPIase activity k, Cell (4th replicate column)",Jurkat cells; with cells,0.00308 s⁻¹
same,"cell surface PPIase activity k, Cell (5th replicate column)",Jurkat cells; with cells,0.00293 s⁻¹
same,"cell surface PPIase activity k, Cell (6th replicate column)",Jurkat cells; with cells,0.00306 s⁻¹
same,"cell surface PPIase activity k, Mean",Jurkat cells; with cells,0.003176 s⁻¹
same,"Supernatant PPIase activity k, Exp. 1",[2]; Medium with FBS,0.00201 s⁻¹
same,"Supernatant PPIase activity k, Exp. 2",[2]; Medium with FBS,0.00203 s⁻¹
same,"Supernatant PPIase activity k, Exp. 3",[2]; Medium with FBS,0.00197 s⁻¹
same,"Supernatant PPIase activity k, Mean",[2]; Medium with FBS,0.002003 s⁻¹
same,"Supernatant PPIase activity k, Exp. 1",[2]; Medium without FBS,0.00194 s⁻¹
same,"Supernatant PPIase activity k, Exp. 2",[2]; Medium without FBS,0.00197 s⁻¹
same,"Supernatant PPIase activity k, Exp. 3",[2]; Medium without FBS,0.00199 s⁻¹
same,"Supernatant PPIase activity k, Mean",[2]; Medium without FBS,0.001967 s⁻¹
same,inhibition of residual PPIase activity in the supernatant,"[2]; supernatant / FBS-containing culture medium (Fig. 4b, first right)",completely inhibited
same,"Supernatant PPIase activity k, Exp. 1",[3]; supernatant,0.0025 s⁻¹
same,"Supernatant PPIase activity k, Exp. 2",[3]; supernatant,0.00238 s⁻¹
same,"Supernatant PPIase activity k, Exp. 3",[3]; supernatant,0.00221 s⁻¹
same,"Supernatant PPIase activity k, Exp. 4",[3]; supernatant,0.00211 s⁻¹
same,"Supernatant PPIase activity k, Mean",[3]; supernatant,0.0023 s⁻¹
same,"cell surface PPIase activity k, Exp. 2",[3]; with cells,0.0036 s⁻¹
same,"cell surface PPIase activity k, Exp. 3",[3]; with cells,0.00293 s⁻¹
same,"cell surface PPIase activity k, Exp. 4",[3]; with cells,0.00339 s⁻¹
same,"cell surface PPIase activity k, Mean",[3]; with cells,0.003307 s⁻¹

# From article PMC6370856, “Peptidyl prolyl cis/trans isomerase activity on the cell surface correlates with extracellular matrix development” (Communications Biology, 2019)
